Experimental data: PubChem BioAssay AID248 (DTP/NCI, 2004)
Where “and” joins values, the source holds several entries; their conditions need not be identical. Equal values may be shown once. Toxic doses and inconclusive results are not listed. Cut-off read from the data, not from the text of the source: active = T/C of 150% or more; inactive = T/C below 125%.

Tested on: L1210 leukemia ip in BDF1 mice, survival T/C
Test: NCI In Vivo Anticancer Drug Screen. Data for tumor model L1210 Leukemia (intraperitoneal) in B6D2F1 (BDF1) mice
Settings: endpoint: mean survival time, higher = longer survival
How it was run: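 Transplantable tumor model; survival measured in treated vs vehicle control mice. Value = treated/control.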

[1] = dose: 100.0 mg/kg/injection, schedule: Q04DX003 (ip), vehicle: saline
[2] = dose: 200.0 mg/kg/injection, schedule: Q04DX003 (ip), vehicle: saline
[3] = dose: 400.0 mg/kg/injection, schedule: Q04DX003 (ip), vehicle: saline
[4] = dose: 50.0 mg/kg/injection, schedule: Q01DX001 (ip), vehicle: saline
[5] = dose: 100.0 mg/kg/injection, schedule: Q01DX001 (ip), vehicle: saline
[6] = dose: 200.0 mg/kg/injection, schedule: Q01DX001 (ip), vehicle: saline
[7] = dose: 400.0 mg/kg/injection, schedule: Q01DX001 (ip), vehicle: saline
[8] = dose: 25.0 mg/kg/injection, schedule: Q01DX009 (ip), vehicle: saline
[9] = dose: 50.0 mg/kg/injection, schedule: Q01DX009 (ip), vehicle: saline
[10] = dose: 100.0 mg/kg/injection, schedule: Q01DX009 (ip), vehicle: saline
[11] = dose: 100.0 mg/kg/injection, schedule: Q01DX001 (ip), vehicle: Klucel (hydroxypropylcellulose) (HPC)
[12] = dose: 100.0 mg/kg/injection, schedule: Q04DX003 (ip), vehicle: Klucel (hydroxypropylcellulose) (HPC)
[13] = dose: 200.0 mg/kg/injection, schedule: Q01DX001 (ip), vehicle: Klucel (hydroxypropylcellulose) (HPC)
[14] = dose: 200.0 mg/kg/injection, schedule: Q04DX003 (ip), vehicle: Klucel (hydroxypropylcellulose) (HPC)
[15] = dose: 400.0 mg/kg/injection, schedule: Q01DX001 (ip), vehicle: Klucel (hydroxypropylcellulose) (HPC)
[16] = dose: 400.0 mg/kg/injection, schedule: Q04DX003 (ip), vehicle: Klucel (hydroxypropylcellulose) (HPC)
[17] = dose: 100.0 mg/kg/injection, schedule: Q04DX002 (ip), vehicle: saline
[18] = dose: 200.0 mg/kg/injection, schedule: Q04DX002 (ip), vehicle: saline
[19] = dose: 400.0 mg/kg/injection, schedule: Q04DX002 (ip), vehicle: saline
[20] = dose: 400.0 mg/kg/injection, schedule: Q01DX009 (ip), vehicle: saline
[21] = dose: 100.0 mg/kg/injection, schedule: Q01DX009 (ip), vehicle: other
[22] = dose: 200.0 mg/kg/injection, schedule: Q01DX009 (ip), vehicle: other
[23] = dose: 400.0 mg/kg/injection, schedule: Q01DX009 (ip), vehicle: other
[24] = dose: 100.0 mg/kg/injection, schedule: Q01DX001 (ip), vehicle: saline with Tween-80
[25] = dose: 200.0 mg/kg/injection, schedule: Q01DX001 (ip), vehicle: saline with Tween-80
[26] = dose: 400.0 mg/kg/injection, schedule: Q01DX001 (ip), vehicle: saline with Tween-80
[27] = dose: 100.0 mg/kg/injection, schedule: Q01DX009 (ip), vehicle: saline with Tween-80
[28] = dose: 100.0 mg/kg/injection, schedule: Q04DX003 (ip), vehicle: saline with Tween-80
[29] = dose: 200.0 mg/kg/injection, schedule: Q01DX009 (ip), vehicle: saline with Tween-80
[30] = dose: 400.0 mg/kg/injection, schedule: Q01DX009 (ip), vehicle: saline with Tween-80
[31] = dose: 400.0 mg/kg/injection, schedule: Q04DX003 (ip), vehicle: saline with Tween-80
[32] = dose: 200.0 mg/kg/injection, schedule: Q04DX003 (ip), vehicle: saline with Tween-80

Measured: T/C

C=CCN(CC=C)C(=O)C1C2CC3OC(=O)C1C3C2 (centres undefined)
inactive: [1] 94 % of control and 104 % of control | [2] 109 % of control and 104 % of control | [3] 94 % of control and 102 % of control

CCOC(=O)C1CN(c2ccccc2)C(=O)C1=O (centres undefined)
inactive: [4] 104 % of control | [5] 98 % of control | [6] 96 % of control | [7] 98 % of control

CC1CN1N (centres undefined)
inactive: [8] 101 % of control | [9] 101 % of control | dose: 50.0 mg/kg/injection, schedule: Q04DX003 (ip), vehicle: saline 109 % of control | [5] 105 % of control | [10] 98 % of control | [1] 103 % of control | [6] 105 % of control

c1ccc(C2=NNC(c3ccccc3)=C(c3ccccc3)C2)cc1
inactive: [11] 89 % of control | [12] 98 % of control | [13] 103 % of control | [14] 100 % of control | [15] 101 % of control | [16] 100 % of control

O=S1(=O)C2CCCC1(Cl)CCC2
inactive: dose: 75.0 mg/kg/injection, schedule: Q01DX001 (ip), vehicle: saline 107 % of control | dose: 150.0 mg/kg/injection, schedule: Q01DX001 (ip), vehicle: saline 102 % of control | dose: 300.0 mg/kg/injection, schedule: Q01DX001 (ip), vehicle: saline 93 % of control

CC1=C2[C@H]3OC(=O)[C@@H](C)[C@@H]3CC[C@@]2(C)C=CC1=O
inactive: [5] 101 % of control | [12] 97 % of control | [6] 101 % of control | [14] 103 % of control

N/C(=N\Nc1ccccc1)N[N+](=O)[O-]
inactive: dose: 175.0 mg/kg/injection, schedule: Q01DX001 (ip), vehicle: acetone 100 % of control | dose: 265.0 mg/kg/injection, schedule: Q01DX001 (ip), vehicle: acetone 96 % of control | dose: 400.0 mg/kg/injection, schedule: Q01DX001 (ip), vehicle: acetone 94 % of control | dose: 600.0 mg/kg/injection, schedule: Q01DX001 (ip), vehicle: acetone 104 % of control

C/C=C\C=C\COC(=O)CC(C)C
inactive: [17] 103 % of control | [18] 103 % of control | [19] 103 % of control

CC(=O)N1CCn2nccc21
inactive: dose: 100.0 mg/kg/injection, schedule: Q01DX009 (ip), vehicle: water 103 % of control | dose: 100.0 mg/kg/injection, schedule: Q04DX003 (ip), vehicle: water 97 % of control | dose: 200.0 mg/kg/injection, schedule: Q01DX009 (ip), vehicle: water 112 % of control | dose: 200.0 mg/kg/injection, schedule: Q04DX003 (ip), vehicle: water 106 % of control | dose: 240.0 mg/kg/injection, schedule: Q01DX009 (ip), vehicle: saline 109 % of control | dose: 240.0 mg/kg/injection, schedule: Q01DX009 (ip), vehicle: water 110 % of control | [20] 122 % of control | dose: 400.0 mg/kg/injection, schedule: Q04DX003 (ip), vehicle: water 106 % of control | dose: 666.0 mg/kg/injection, schedule: Q01DX009 (ip), vehicle: saline 122 % of control | dose: 666.0 mg/kg/injection, schedule: Q01DX009 (ip), vehicle: water 90 % of control

O=c1c(C(Cl)Cl)nc2ccccc2n1O
inactive: [11] 95 % of control | [13] 98 % of control | [15] 101 % of control

C1CCC2(CC1)SC1(CCCCC1)SC1(CCCCC1)S2
inactive: [21] 94 % of control | dose: 100.0 mg/kg/injection, schedule: Q04DX003 (ip), vehicle: other 95 % of control | [22] 95 % of control | dose: 200.0 mg/kg/injection, schedule: Q04DX003 (ip), vehicle: other 97 % of control | [23] 92 % of control | dose: 400.0 mg/kg/injection, schedule: Q04DX003 (ip), vehicle: other 97 % of control

CC(C)NNC(=O)C(N)CO (centres undefined)
inactive: [8] 91 % of control | [9] 97 % of control | [10] 105 % of control | dose: 200.0 mg/kg/injection, schedule: Q01DX009 (ip), vehicle: saline 97 % of control | [20] 107 % of control

O=C(Nc1ccccc1)Nc1ncn[nH]1
inactive: dose: 75.0 mg/kg/injection, schedule: Q01DX001 (ip), vehicle: carboxymethylcellulose (CMC) 97 % of control | dose: 150.0 mg/kg/injection, schedule: Q01DX001 (ip), vehicle: carboxymethylcellulose (CMC) 92 % of control | dose: 300.0 mg/kg/injection, schedule: Q01DX001 (ip), vehicle: carboxymethylcellulose (CMC) 90 % of control

CCCCc1c(N)nc(N)nc1-c1ccccc1
inactive: [11] 112 % of control | [13] 105 % of control | [15] 94 % of control

c1ccc(COC2NCCN2Cc2ccccc2)cc1 (centres undefined)
inactive: [5] 98 % of control | [6] 101 % of control | [7] 101 % of control

Cc1cc(OCc2nc(N)nc(N)c2-c2ccc(Cl)c(Cl)c2)ccc1NC(=O)c1cc(S(=O)(=O)F)ccc1Cl
inactive: [24] 98 % of control | [25] 93 % of control | [26] 97 % of control

N#CC(c1ccccc1)C(c1ccccc1)c1ccccc1 (centres undefined)
inactive: [4] 102 % of control | [5] 102 % of control | [6] 98 % of control | [7] 98 % of control

O=C(/C=C/C=C/c1ccccc1)c1ccc(Cl)cc1
inactive: [27] 97 % of control | [28] 95 % of control | [29] 92 % of control | [30] 95 % of control | [31] 96 % of control

CC(=O)ON1CCC=NC1
inactive: dose: 50.0 mg/kg/injection, schedule: Q04DX002 (ip), vehicle: saline 102 % of control | [17] 91 % of control | [18] 91 % of control | [19] 109 % of control

Cc1ccc(S(=O)(=O)NC(CSCc2ccccc2)C(=O)O)cc1 (centres undefined)
inactive: [27] 92 % of control | [29] 101 % of control

O=[N+]([O-])c1ccc(Cl)c(CNc2ncnc3c2ncn3C2CCCCO2)c1 (centres undefined)
inactive: [28] 102 % of control | [32] 92 % of control | [31] 102 % of control

O=C(O)c1ccc(-c2c3ccc(=O)cc-3oc3cc(O)ccc23)c(C(=O)O)c1
inactive: [1] 97 % of control | [2] 105 % of control | [3] 97 % of control

O=[N+]([O-])c1cccc(S(=O)(=O)NNc2ccc(Br)cc2)c1
inactive: [12] 96 % of control | [14] 93 % of control | [16] 89 % of control

FC(F)(F)c1cccc(C(OCCN2CCCC2)c2ccccc2)c1 (centres undefined)
inactive: dose: 6.25 mg/kg/injection, schedule: Q01DX009 (ip), vehicle: saline 92 % of control | dose: 12.5 mg/kg/injection, schedule: Q01DX009 (ip), vehicle: saline 95 % of control | [8] 110 % of control

NC(=O)C1CC=CCC1C(=O)O (centres undefined)
inactive: [21] 88 % of control | [22] 100 % of control | [23] 92 % of control

CCCCN(CC)/N=N/c1nc[nH]c1C(N)=O
inactive: [24] 95 % of control | [27] 117 % of control | [28] 94 % of control | [25] 101 % of control | [29] 124 % of control | [32] 110 % of control | [26] 116 % of control | [30] 88 % of control | [31] 103 % of control
